The nature of experiment [1]: Reduction of syringaldehyde in xylose monomer stream (GC/MS). Conditions: for Syringaldehyde: 100 g xylose monomer stream after treatment, shaken 30-60 min, untreated control 321.5 ppm; for syringaldehyde reduction (in words): xylose monomer stream, from about 321.5 ppm, pass is less than about 50 ppm. On the procedure:
The acid-hydrolyzed liquor was filtered and then neutralized with sodium hydroxide to a pH of about 5-7 to produce the xylose monomer stream. Five samples labeled Samples 1-5 were evaluated as described in Table 2. Sample 1 was an untreated control. […] The flask was shaken for 30-60 min, and Samples 2 and 5 were then analyzed for syringaldehyde by GC/MS. […] The flask was shaken for about 30-60 min, adjusted to pH of about 5 with H2SO4, and then filtered. The resulting liquid portion was analyzed by GC/MS. For Sample 4, the pH of 100 g of the xylose monomer stream was adjusted to 5-6 with NH4OH, the flask was shaken for 30-60 min, and then the samples were analyzed by GC/MS.

For experiment [2], the system named is Saccharomyces cerevisiae. The experiment can be described thus: Fermentation test of treated sugar liquor with yeast. The experiment is classed as cell-based. On the procedure:
The saccharide-containing compositions of Examples 1 and 3 were subjected to a fermentation test with the yeast Saccharomyces cerevisiae. In the fermentation test, 1% yeast extract and 2% peptone were added to the saccharide-containing compositions of Examples 1 and 3 as growth nutrients, and these compositions were then inoculated with 5% inoculum of Saccharomyces cerevisiae (optical density 10). If more than 80% of sugars were consumed in 72 hours of fermentation, the test is considered a “pass” (i.e., a satisfactory test result).
The saccharide-containing compositions were subjected to a fermentation test with the yeast Saccharomyces cerevisiae. In the fermentation test, 1% yeast extract and 2% peptone were added to the saccharide-containing compositions as growth nutrients, and these compositions were then inoculated with 5% inoculum of Saccharomyces cerevisiae (optical density 10). If more than 80% of sugars were consumed in 72 hours of fermentation, the test is considered a “pass” (i.e., a satisfactory test result).

Experiment [3] is described as follows: Reduction of HMF in sugar liquor after contact with amine. On the procedure:
Sugar liquor was prepared by a two-step hydrolysis process with subsequent refining. A slurry of particulate biomass was first subjected to a first hydrolysis step at about 190-240° C. and 50-80 bar for 1-120 min. The resulting solids were subjected to supercritical or near-critical water conditions at about 374-450° C. and 221-300 bar for less than 1 minute. The resulting liquid portion was concentrated to about 250-300 g/L of monomer sugar equivalent and acid hydrolyzed at about 100-200° C. for 1 hour. The acid-hydrolyzed liquor was filtered and neutralized with sodium hydroxide to a pH of about 5-7. After that, the liquid portion was overlimed with calcium oxide at pH of about 8-10 and filtered. The final pH adjustment to about 5-7 was done with 70% sulfuric acid. Overliming was performed to produce the sugar liquor used in these examples, and an aldehyde compound, HMF, subsequently re-added to simulate a sugar liquor that is not overlimed.
The pH of 100 g of the sugar liquor was adjusted to 6 with sodium hydroxide prior to addition of the amine. 1 g of m-phenylenediamine (MPD) was added to the sugar liquor, and the mixture was shaken for 1 hour.
Using the same procedure to prepare the sugar liquor as described in Example 1, the pH of 100 g of the sugar liquor was adjusted to 6 with NaOH prior to addition of the amine. For each sample, 1 g of amine was added, and the mixture was shaken for 1 hour.
Using the same procedure to prepare the sugar liquor as described in Example 1, the pH of 100 g of the sugar liquor was adjusted to 6 with sodium hydroxide prior to addition of the amine. For each sample, 1 g of amine was added, and the mixture was shaken for 1 hour.

Experiment [4] has as its system Pichia stipitis. Put plainly: Fermentation testing of treated xylose monomer stream. The experiment is classed as cell-based. On the procedure: For fermentation testing, the pH was adjusted back to 5 with H2SO4 and fermentation was performed with the xylose fermenting organism Pichia stipitis.
The mark [5] stands for this setting: sugar liquor after contact, 1 g amine per 100 g liquor, pH 6, shaken 1 hour.

Experimental findings from patent US9410217B2, “Method of reducing a fermentation and/or enzyme inhibitor in a saccharide-containing composition” (priority 2014, dated 2016) are described below.

Several values for one entry are separate records, joined by “and”; a condition that tells them apart may be missing. Equal values may be shown once. Read-outs that look alike come from different tables or passages of the source.

Regarding `N.O` [NH4OH], in experiment [1], the Syringaldehyde is 147.7 ppm and the “syringaldehyde reduction (in words)” value is recorded as “did not reduce the concentration of syringaldehyde to below a detectable level”.

In the case of `Nc1ccccc1` [aniline], in experiment [2] (24 hr), the “% Glucose Consumed” value is given as 5.19%, the Ethanol amounted to 1.55 g/L and the HMF was 5.2 g/L. Also, in experiment [2] (48 hr), the “% Glucose Consumed” value worked out at 5.19%, the Ethanol turned out to be 1.51 g/L and the HMF is 4.89 g/L. In experiment [3] (setting [5]), the HMF was 7.43 g/L.

Regarding `C1CCNCC1` [piperidine], in experiment [2], the “% Glucose Consumed” value is 5.39% and 8.05% and 5.62% and 5.78%; the Ethanol was 2.37 g/L and 2.49 g/L and 2.71 g/L and 2.15 g/L; the HMF was 5.31 g/L and 4.83 g/L and 5.51 g/L and 5.61 g/L. Further, in experiment [3] (pH 6), the HMF was 6.13 g/L.

For the molecule `Cc1ccc(N)cc1N` [DAT, 2,4-diaminotoluene], the “% Glucose Consumed” value in experiment [2] (24 hr) was found to be 51.55%; in experiment [2] (48 hr) it was 96.03%; in experiment [2] (72 hr) it was 95.88%. The Ethanol in experiment [2] (24 hr) is 43.15 g/L; in experiment [2] (48 hr), 92.29 g/L; in experiment [2] (72 hr), 86.38 g/L. This molecule yielded an HMF in experiment [3] (setting [5]) of 0.74 g/L.

On to `Nc1cccc(N)c1` [MPD, m-phenylenediamine], for which the Syringaldehyde entry in experiment [1] is given as “Not detected”. The “syringaldehyde reduction (in words)” value in experiment [1] is given as “below detectable levels”. Further, the Ethanol in experiment [4] (fermentation time 48 hr) worked out at 1.80 g/L; in experiment [4] (fermentation time 72 hr), 4.86 g/L; in experiment [4] (fermentation time 96 hr), 8.22 g/L; in experiment [2] (24 hr), 77.25 g/L. Also, the “fermentability of treated sample (in words)” value in experiment [4] (xylose monomer stream, pH adjusted back to 5) is on record as “fermentable”. Further, the “% Glucose Consumed” value in experiment [2] (24 hr) was 95.64%. Moreover, the HMF in experiment [3] (setting [5]) was 1.50 g/L.

On to `Nc1ccc(N)cc1` [PPD, p-phenylenediamine], for which the “% Glucose Consumed” value in experiment [2] (24 hr) is reported as 24.18%; in experiment [2] (48 hr), 97.75%; in experiment [2] (72 hr) it was 97.40%. The Ethanol in experiment [2] (24 hr) is 13.74 g/L; in experiment [2] (48 hr), 84.75 g/L; in experiment [2] (72 hr), 84.79 g/L. The HMF in experiment [2] (24 hr) was determined as 0.30 g/L; in experiment [2] (48 hr) it was 0.37 g/L; in experiment [3] (setting [5]), 3.40 g/L.

Regarding `[BH4-].[Na+]` [NaBH4], in experiment [1], the Syringaldehyde turned out to be 218.4 ppm and the “syringaldehyde reduction (in words)” value is “did not reduce the concentration of syringaldehyde to below a detectable level”.

As for `NCCO` [ethanolamine], the “% Glucose Consumed” value in experiment [2] (24 hr) came to 7.92%; in experiment [2] (48 hr), 6.29%; in experiment [2] (72 hr) it was 7.45%; in experiment [2] (120 hr), 12.73%. Further, the Ethanol in experiment [2] (24 hr) was found to be 3.53 g/L; in experiment [2] (48 hr) it was 2.74 g/L; in experiment [2] (72 hr) it was 2.92 g/L; in experiment [2] (120 hr), 3.54 g/L. The HMF amounted to 5.24 g/L in experiment [2] (24 hr); 5.03 g/L in experiment [2] (48 hr); 4.67 g/L in experiment [2] (72 hr); 4.46 g/L in experiment [2] (120 hr); 6.01 g/L in experiment [3] (setting [5]).

In the case of `Nc1nc(N)nc(N)n1` [melamine], the “% Glucose Consumed” value in experiment [2] (0 hr) is reported as 0%; in experiment [2] (24 hr), 4.24%; in experiment [2] (48 hr) it was 4.15%; in experiment [2] (72 hr) it was 4.97%. Moreover, the HMF turned out to be 7.52 g/L in experiment [2] (0 hr); 6.59 g/L in experiment [2] (24 hr); 6.47 g/L in experiment [2] (48 hr); 6.45 g/L in experiment [2] (72 hr); 7.52 g/L in experiment [3] (setting [5]). For the same molecule, the Ethanol in experiment [2] (24 hr) came to 2.13 g/L; in experiment [2] (48 hr), 2.48 g/L; in experiment [2] (72 hr), 2.1 g/L.

Consider `NC(N)=O` [urea], for which the “% Glucose Consumed” value in experiment [2] (0 hr) is given as 0%; in experiment [2] (24 hr), 6.18%; in experiment [2] (48 hr), 4.49%; in experiment [2] (72 hr), 6.35%; in experiment [2] (120 hr), 8.49%. In addition, the Ethanol in experiment [2] (0 hr) worked out at 1.38 g/L; in experiment [2] (24 hr), 2.72 g/L; in experiment [2] (48 hr) it was 2.23 g/L; in experiment [2] (72 hr) it was 2.39 g/L; in experiment [2] (120 hr), 2.41 g/L. Further, the HMF is 7.44 g/L in experiment [2] (0 hr); 6.58 g/L in experiment [2] (24 hr); 6.49 g/L in experiment [2] (48 hr); 6.06 g/L in experiment [2] (72 hr); 5.66 g/L in experiment [2] (120 hr); 7.44 g/L in experiment [3] (setting [5]).

For the molecule `Nc1ccccc1N` [OPD, o-phenylenediamine], in experiment [2] (24 hr), the “% Glucose Consumed” value is 24.24% and the Ethanol amounted to 16.80 g/L. For the same molecule, in experiment [2] (48 hr), the “% Glucose Consumed” value stood at 96.61% and the Ethanol was 86.88 g/L. Besides, in experiment [2] (72 hr), the “% Glucose Consumed” value was determined as 96.53%, the Ethanol came out at 90.28 g/L and the HMF stood at 0.36 g/L.
